Biological target: α7 nAChR subtype (Rattus norvegicus, UniProt Q05941)
Format: binding

Chain of α7 nAChR subtype (Q05941 23-502 limits assumed): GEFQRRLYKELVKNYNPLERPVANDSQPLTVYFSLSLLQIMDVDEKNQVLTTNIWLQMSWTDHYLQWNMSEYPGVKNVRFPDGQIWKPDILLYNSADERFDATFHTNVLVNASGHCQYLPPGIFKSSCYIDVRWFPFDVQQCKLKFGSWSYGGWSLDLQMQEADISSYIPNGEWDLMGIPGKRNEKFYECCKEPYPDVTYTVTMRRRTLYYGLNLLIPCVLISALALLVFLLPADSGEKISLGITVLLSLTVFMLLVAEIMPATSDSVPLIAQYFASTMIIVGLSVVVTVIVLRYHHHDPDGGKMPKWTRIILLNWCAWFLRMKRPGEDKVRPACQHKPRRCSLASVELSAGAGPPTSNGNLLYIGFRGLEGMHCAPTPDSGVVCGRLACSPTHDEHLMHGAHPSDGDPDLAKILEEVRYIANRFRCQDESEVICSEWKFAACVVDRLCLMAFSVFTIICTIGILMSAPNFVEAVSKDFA

^125I-α-Bungarotoxin [^125I-α-BTX] showed a Kd of 1.67 nM.
